Experimental data as given in patent US4199500A, “Peptides related to somatostatin” (Eli Lilly and Company, priority 1978, dated 1980).
Positions of bridges follow the written chain, without caps; N, C: chain ends. Non-standard residues stand in square brackets, D forms with d. Residues, ends and D or L forms follow the SMILES beside them.

Assays:
[1] = tested on: growth hormone (GH) secretion; experiment: Growth Hormone Inhibition In Rats (pentobarbital-stimulated GH secretion, serum GH by radioimmunoassay); format: in vivo; conditions: male rats; for % Inhibition of GH release (as compared to control): compared to saline control; for Serum Growth Hormone Conc. Mean ± SEM: sodium pentobarbital 4 mg/rat I.P., 20 minutes after dosing
Description: A. Growth Hormone Inhibition In Rats:
This test is a modification of the method of P. Brazeau et al. Endocrinology, 94, 184 (1974). Male rats (weighing 100-110 g.) are divided into three groups of eight rats each. Each rat is administered sodium pentobarbital at a dose of 4 mg/rat (I.P.) to stimulate growth hormone (GH) secretion. Simultaneously, one group of rats receives the test compound (S.C.); the second group receives somatostatin (S.C.); and the third group (control) receives saline (S.C.). Twenty-minutes later, the animals are decapitated and blood samples are collected. The serum concentration of growth hormone (GH) is determined by radioimmunoassay. The mean GH concentration (± standard error of the mean) is calculated for each group. The percent inhibition of GH release (as compared to saline controls) is then calculated for the test compound and for somatostatin. When tested as above-described, the peptide of Example 4 (D-Ala^2, Ala^5, D-Trp^8, Val^10, D-Phe^11 -Somatostatin) representative of the peptides of Formula III, gave the results set forth below in Table I: […]

[2] = tested on: serum insulin; experiment: Insulin Inhibition In Dogs (I.V. infusion, L-alanine stimulation, serum insulin by radioimmunoassay); format: in vivo, dog
Description: (§1) B. Insulin and Glucagon Inhibition In Dogs:
(§2) A normal dog is fasted overnight. An intravenous (I.V.) infusion of the test compound (dissolved in saline) is begun. Thirty minutes thereafter an additional infusion of L-alanine (dissolved in saline) is begun and is continued for a total of 15 minutes so that a total dose of about 1 mmole of L-alanine per kg. body weight is given. Infusion of the test compound is continued for an additional 15 minute period.
(§3) Blood samples are taken periodically before (at -20, -10 and -1 minutes) and after (5, 10, 15, 30, 35, 40, 45, 50, 60, 90, 120 and 150 minutes) the start of the infusion of the test compound. The serum insulin and serum glucagon concentrations in the blood are determined by radioimmunoassay. A plot is made of the glucagon and insulin concentrations versus time. The plot obtained from the test compound is compared to plots obtained from somatostatin and saline (controls) in similar experiments.
(§4) Infusion of L-alanine (in the absence of somatostatin or active test compound) causes an abrupt increase in serum insulin and glucagon concentrations. The concentrations return to basal levels after the L-alanine infusion is terminated.

[3] = tested on: serum glucagon; experiment: Glucagon Inhibition In Dogs (I.V. infusion, L-alanine stimulation, serum glucagon by radioimmunoassay); format: in vivo, dog
Description: as §1, §2, §3, §4

[4] = normal fasted dog, I.V. infusion 0.237 μg/Kg./min, L-alanine infusion
[5] = dog, in the presence of L-alanine
[6] = dog, infusion alone (no L-alanine)

## CC(C)[C@@H]1NC(=O)[C@H](CCCCN)NC(=O)[C@@H](Cc2c[nH]c3ccccc23)NC(=O)[C@H](Cc2ccccc2)NC(=O)[C@H](Cc2ccccc2)NC(=O)[C@H](C)NC(=O)[C@H](CCCCN)NC(=O)[C@@H](NC(=O)[C@@H](C)NC(=O)[C@H](C)N)CSSC[C@@H](C(=O)O)NC(=O)[C@H](CO)NC(=O)[C@H]([C@@H](C)O)NC(=O)[C@@H](Cc2ccccc2)NC1=O [Example 4, L-Alanyl-D-alanyl-L-cysteinyl-L-lysyl-L-alanyl-L-phenylalanyl-L-phenylalanyl-D-tryptophyl-L-lysyl-L-valyl-D-phenyl-alanyl-L-threonyl-L-seryl-L-cysteine cyclic (3->14) disulfide] (H-A[dA]CKAFF[dW]KV[dF]TSC-OH; disulfide 3-14)
[1]; dose 2 mg/kg S.C.
  % Inhibition of GH release (as compared to control): 7.8%
  Serum Growth Hormone Conc. Mean ± SEM: 61 ± 24 ng/mL
[1]; dose 50 mg/kg S.C.
  % Inhibition of GH release (as compared to control): 66%
  Serum Growth Hormone Conc. Mean ± SEM: 97 ± 39 ng/mL
[2]; [4]
  inhibition of insulin concentration: no significant inhibition
[3]; [4]
  inhibition of glucagon concentration: no significant inhibition

## C[C@H](N)C(=O)NCC(=O)N[C@H]1CSSC[C@@H](C(=O)O)NC(=O)[C@H](CO)NC(=O)[C@H]([C@@H](C)O)NC(=O)[C@H](Cc2ccccc2)NC(=O)[C@H]([C@@H](C)O)NC(=O)[C@H](CCCCN)NC(=O)[C@H](Cc2c[nH]c3ccccc23)NC(=O)[C@H](Cc2ccccc2)NC(=O)[C@H](Cc2ccccc2)NC(=O)[C@H](CC(N)=O)NC(=O)[C@H](CCCCN)NC1=O [Somatostatin]
[1]; dose 2 mg/kg S.C.
  % Inhibition of GH release (as compared to control): 63%
  Serum Growth Hormone Conc. Mean ± SEM: 105 ± 69 ng/mL
[1]; dose 50 mg/kg S.C.
  % Inhibition of GH release (as compared to control): 93%
[2]; [5]
  effect on increase in insulin concentration induced by L-alanine: inhibits the increase
[2]; [6]
  effect on basal serum concentration of insulin: causes a decrease
[3]; [5]
  effect on increase in glucagon concentration induced by L-alanine: inhibits the increase
[3]; [6]
  effect on basal serum concentration of glucagon: causes a decrease
